Tests used:
STAT5 A/B [pTyr694/699] [1] = assay: LanthaScreen STAT5 TF-1 Activator Screen, GM-CSF Stimulation; type: cell-based; settings: cell supernatant
Procedure: A functional cell-based assay was performed in order to determine the biological activity of the GM-CSF produced by the MVX-1 cell line. Two samples of the cell supernatant containing the produced GM-CSF were tested in duplicate using the LanthaScreen™ Cellular Assay (ThermoFisher Scientific), which uses time-resolved resonance energy transfer (TR-FRET) between a terbium-labeled phosphorylation-site specific antibody (PSSA) and a green fluorescent protein (GFP fusion of a particular kinase substrate to provide an assay readout that is ratiometric, robust, and amenable to high-throughput screening (HTS) applications. The use of a GFP fusion of the target along with a single detection antibody simplifies the assay protocol, eliminates the need for beads or additional reagents, and simplifies the assay relative to other two-antibody “sandwich” approaches.
1. 32 μL of cells diluted in Assay Media to appropriate cell density are added to the assay plate. […]
4. The assay plate is incubated at 37° C./5% CO2 in a humidified incubator for a pre-determined length of time (cell line/assay specific).
5. Cells are lysed by the addition of lysis buffer with a pre-determined concentration of Tb-labeled Ab (assay specific).
6. The assay plates are incubated in the dark at room temperature for a pre-determined length of time (assay specific).
7. Read plate on a fluorescence plate reader. […]

STAT5 A/B [pTyr694/699] [2] = settings: STAT5 TF-1 cell line, inhibitor mode, GM-CSF stimulation; representative value; cited from earlier work
STAT5 A/B [pTyr694/699] [3] = settings: STAT5 TF-1 cell line, activator mode; representative value; cited from earlier work

GM-CSF produced by the MVX-1 cell line: huGM-CSF in cell supernatant of the genetically modified MVX-1 cell line
results of the functional cell-based assay (STAT5 A/B [pTyr694/699] [1]; two samples in duplicate (FIGS. 7A-D)): all positive
biological activity compared with commercially available GM-CSF (STAT5 A/B [pTyr694/699] [1]; two samples in duplicate, within the limitations of the assay): equivalent to commercially available GM-CSF

JAK Inhibitor I
IC50 (STAT5 A/B [pTyr694/699] [2]): 37.3 nM

granulocyte macrophage-colony stimulating factor [GM-CSF]
EC50 (STAT5 A/B [pTyr694/699] [3]): 3 pM
